Laboratory results reported in the NIST ThermoML archive (doi:10.1021/acs.jced.5b00348).
Values joined by “and” are separate entries in the source; they are usually repeats but may differ in a detail not shown here. Equal values may be shown once.

Details: for vapor or sublimation pressure: Closed cell (Static) method

FC(F)(F)/C=C/Cl [(E)-1-chloro-3,3,3-trifluoroprop-1-ene]
Details | mass density | speed of sound
379.78 K, 201.47 kPa, Gas | – | 156.72 m/s
379.78 K, 201.53 kPa, Gas | – | 156.72 m/s
379.78 K, 407.41 kPa, Gas | – | 151.7 m/s
379.78 K, 407.46 kPa, Gas | – | 151.7 m/s
379.78 K, 407.5 kPa, Gas | – | 151.7 m/s
379.78 K, 407.74 kPa, Gas | – | 151.69 m/s
379.78 K, 407.82 kPa, Gas | – | 151.69 m/s
379.78 K, 407.85 kPa, Gas | – | 151.69 m/s
379.78 K, 568.62 kPa, Gas | – | 147.47 m/s
379.78 K, 796.76 kPa, Gas | – | 140.89 m/s
379.78 K, 796.81 kPa, Gas | – | 140.89 m/s
379.79 K, 407.85 kPa, Gas | – | 151.69 m/s
379.79 K, 796.72 kPa, Gas | – | 140.89 m/s
379.79 K, 959.4 kPa, Gas | – | 135.64 m/s
379.79 K, 959.42 kPa, Gas | – | 135.64 m/s
379.79 K, 959.44 kPa, Gas | – | 135.64 m/s
380 K, 2975.2 kPa, Fluid (supercritical or subcritical phases) | 1043.29 kg/m3 | –
380 K, 3879.4 kPa, Liquid | 1051.51 kg/m3 | –
380.03 K, 547.9 kPa, Gas | 25.032 kg/m3 | –
380.03 K, 548.2 kPa, Gas | 25.047 kg/m3 | –
380.04 K, 428.4 kPa, Gas | 19.095 kg/m3 | –
383.99 K, 1844.2 kPa, Fluid (supercritical or subcritical phases) | 1016.28 kg/m3 | –
383.99 K, 4425 kPa, Fluid (supercritical or subcritical phases) | 1042.8 kg/m3 | –
385 K, 5748.6 kPa, Liquid | 1050.89 kg/m3 | –
389.93 K, 1284.7 kPa, Gas | 67.575 kg/m3 | –
390 K, 7622.7 kPa, Liquid | 1050.32 kg/m3 | –
390.03 K, 572 kPa, Gas | 25.32 kg/m3 | –
390.03 K, 572.2 kPa, Gas | 25.33 kg/m3 | –
390.04 K, 448.1 kPa, Gas | 19.387 kg/m3 | –
391.99 K, 2100.9 kPa, Fluid (supercritical or subcritical phases) | 985.96 kg/m3 | –
391.99 K, 4502.1 kPa, Fluid (supercritical or subcritical phases) | 1015.42 kg/m3 | –
395 K, 2051.4 kPa, Liquid | 971.55 kg/m3 | –
395 K, 4073.9 kPa, Liquid | 999.34 kg/m3 | –
395 K, 6005.8 kPa, Liquid | 1020.09 kg/m3 | –
395 K, 7979.4 kPa, Liquid | 1037.8 kg/m3 | –
395 K, 9495 kPa, Liquid | 1049.74 kg/m3 | –
399.68 K, 81.08 kPa, Gas | – | 163.78 m/s
399.69 K, 81.05 kPa, Gas | – | 163.76 m/s
399.69 K, 81.08 kPa, Gas | – | 163.78 m/s
399.7 K, 81.05 kPa, Gas | – | 163.76 m/s
399.7 K, 200.81 kPa, Gas | – | 161.43 m/s
399.7 K, 200.89 kPa, Gas | – | 161.43 m/s
399.71 K, 200.94 kPa, Gas | – | 161.42 m/s
399.71 K, 201.02 kPa, Gas | – | 161.42 m/s
399.72 K, 579.09 kPa, Gas | – | 153.49 m/s
399.72 K, 579.15 kPa, Gas | – | 153.49 m/s
399.72 K, 579.18 kPa, Gas | – | 153.49 m/s
399.73 K, 1002.2 kPa, Gas | – | 143.33 m/s
399.74 K, 1002.2 kPa, Gas | – | 143.33 m/s
399.74 K, 1416.7 kPa, Gas | – | 131.29 m/s and 131.29 m/s
399.75 K, 1416.7 kPa, Gas | – | 131.29 m/s and 131.29 m/s
399.93 K, 1343.9 kPa, Gas | 67.621 kg/m3 | –
399.94 K, 1613 kPa, Gas | 87.993 kg/m3 | –
399.98 K, 2020.5 kPa, Fluid (supercritical or subcritical phases) | 946.51 kg/m3 | –
399.98 K, 2500.1 kPa, Fluid (supercritical or subcritical phases) | 955.38 kg/m3 | –
399.98 K, 4501.4 kPa, Fluid (supercritical or subcritical phases) | 985.13 kg/m3 | –
400.03 K, 468.2 kPa, Gas | 19.679 kg/m3 | –
400.03 K, 596.5 kPa, Gas | 25.617 kg/m3 and 25.615 kg/m3 | –
404.94 K, 3251 kPa, Fluid (supercritical or subcritical phases) | 944.76 kg/m3 | –
409.92 K, 1401.3 kPa, Gas | 67.63 kg/m3 | –
409.92 K, 1693.1 kPa, Gas | 87.977 kg/m3 | –
409.95 K, 2426 kPa, Fluid (supercritical or subcritical phases) | 899.12 kg/m3 | –
409.95 K, 4566.2 kPa, Fluid (supercritical or subcritical phases) | 944.3 kg/m3 | –
410.01 K, 488.6 kPa, Gas | 19.972 kg/m3 | –
410.01 K, 620.7 kPa, Gas | 25.887 kg/m3 and 25.885 kg/m3 | –
414.94 K, 3540.5 kPa, Fluid (supercritical or subcritical phases) | 898.69 kg/m3 | –
419.55 K, 79.93 kPa, Gas | – | 167.87 m/s
419.56 K, 79.92 kPa, Gas | – | 167.86 m/s
419.56 K, 79.93 kPa, Gas | – | 167.87 m/s
419.56 K, 79.94 kPa, Gas | – | 167.88 m/s
419.56 K, 79.95 kPa, Gas | – | 167.88 m/s and 167.89 m/s
419.56 K, 196.42 kPa, Gas | – | 165.91 m/s
419.56 K, 196.56 kPa, Gas | – | 165.91 m/s and 165.91 m/s
419.57 K, 196.49 kPa, Gas | – | 165.9 m/s and 165.9 m/s
419.57 K, 196.51 kPa, Gas | – | 165.9 m/s
419.57 K, 196.56 kPa, Gas | – | 165.9 m/s
419.57 K, 196.57 kPa, Gas | – | 165.9 m/s
419.57 K, 196.62 kPa, Gas | – | 165.9 m/s
419.57 K, 196.63 kPa, Gas | – | 165.91 m/s
419.58 K, 196.44 kPa, Gas | – | 165.9 m/s
419.58 K, 196.51 kPa, Gas | – | 165.9 m/s
419.58 K, 398.05 kPa, Gas | – | 162.39 m/s
419.58 K, 398.07 kPa, Gas | – | 162.39 m/s
419.58 K, 398.08 kPa, Gas | – | 162.39 m/s
419.59 K, 803.55 kPa, Gas | – | 154.82 m/s
419.59 K, 803.59 kPa, Gas | – | 154.82 m/s
419.59 K, 803.61 kPa, Gas | – | 154.82 m/s
419.59 K, 1212.4 kPa, Gas | – | 146.32 m/s
419.6 K, 1212.4 kPa, Gas | – | 146.32 m/s
419.6 K, 1723.5 kPa, Gas | – | 133.88 m/s and 133.89 m/s
419.61 K, 2072 kPa, Gas | – | 123.58 m/s
419.61 K, 2072.1 kPa, Gas | – | 123.58 m/s
419.62 K, 2072.1 kPa, Gas | – | 123.58 m/s
419.63 K, 2072.3 kPa, Gas | – | 123.59 m/s
419.65 K, 2072.5 kPa, Gas | – | 123.6 m/s
419.67 K, 2072.7 kPa, Gas | – | 123.61 m/s
419.68 K, 2072.8 kPa, Gas | – | 123.62 m/s
419.69 K, 2072.8 kPa, Gas | – | 123.62 m/s
419.69 K, 2072.9 kPa, Gas | – | 123.63 m/s
419.9 K, 1457.6 kPa, Gas | 67.627 kg/m3 | –
419.92 K, 1771.2 kPa, Gas | 87.947 kg/m3 | –
419.94 K, 4667.5 kPa, Fluid (supercritical or subcritical phases) | 898.26 kg/m3 | –
419.95 K, 2831.8 kPa, Fluid (supercritical or subcritical phases) | 841.35 kg/m3 | –
419.99 K, 510 kPa, Gas | 20.295 kg/m3 | –
420 K, 508.9 kPa, Gas | 20.248 kg/m3 | –
420 K, 645.1 kPa, Gas | 26.148 kg/m3 and 26.149 kg/m3 | –
424.94 K, 3746.2 kPa, Fluid (supercritical or subcritical phases) | 841 kg/m3 | –
429.9 K, 1513.1 kPa, Gas | 67.627 kg/m3 | –
429.9 K, 1847.8 kPa, Gas | 87.931 kg/m3 | –
429.94 K, 3475.7 kPa, Fluid (supercritical or subcritical phases) | 782.51 kg/m3 | –
429.94 K, 4675.4 kPa, Fluid (supercritical or subcritical phases) | 840.63 kg/m3 | –
430 K, 530.5 kPa, Gas | 20.558 kg/m3 | –
430 K, 669.6 kPa, Gas | 26.403 kg/m3 | –
434.94 K, 4229.4 kPa, Fluid (supercritical or subcritical phases) | 782.14 kg/m3 | –
439.89 K, 1922.8 kPa, Gas | 87.898 kg/m3 | –
439.9 K, 1568.8 kPa, Gas | 67.676 kg/m3 | –
439.95 K, 1137.4 kPa, Gas | 46.158 kg/m3 | –
439.95 K, 1568.5 kPa, Gas | 67.645 kg/m3 | –
440 K, 255.4 kPa, Gas | 9.339 kg/m3 | –
440 K, 550.9 kPa, Gas | 20.806 kg/m3 | –
440 K, 551.6 kPa, Gas | 20.832 kg/m3 | –
440 K, 694.2 kPa, Gas | 26.651 kg/m3 | –
440 K, 694.3 kPa, Gas | 26.653 kg/m3 | –
443.94 K, 475.9 kPa, Fluid (supercritical or subcritical phases) | 17.642 kg/m3 | –
443.94 K, 547.2 kPa, Fluid (supercritical or subcritical phases) | 20.44 kg/m3 | –
443.94 K, 1352.4 kPa, Fluid (supercritical or subcritical phases) | 55.612 kg/m3 | –
443.94 K, 1768.1 kPa, Fluid (supercritical or subcritical phases) | 77.205 kg/m3 | –
443.94 K, 2074.3 kPa, Fluid (supercritical or subcritical phases) | 95.28 kg/m3 | –
443.94 K, 2390.8 kPa, Fluid (supercritical or subcritical phases) | 116.63 kg/m3 | –
443.94 K, 2690.9 kPa, Fluid (supercritical or subcritical phases) | 140.42 kg/m3 | –
443.94 K, 2893.8 kPa, Fluid (supercritical or subcritical phases) | 159.35 kg/m3 | –
443.94 K, 3102.5 kPa, Fluid (supercritical or subcritical phases) | 182.38 kg/m3 | –
443.94 K, 3197.9 kPa, Fluid (supercritical or subcritical phases) | 194.61 kg/m3 | –
443.94 K, 3199.8 kPa, Fluid (supercritical or subcritical phases) | 194.61 kg/m3 | –
443.94 K, 3703.8 kPa, Fluid (supercritical or subcritical phases) | 306.77 kg/m3 | –
443.94 K, 3908.6 kPa, Fluid (supercritical or subcritical phases) | 504.42 kg/m3 | –
443.95 K, 3858 kPa, Fluid (supercritical or subcritical phases) | 426.27 kg/m3 | –
443.95 K, 4009.4 kPa, Fluid (supercritical or subcritical phases) | 593.8 kg/m3 | –
443.95 K, 4514.9 kPa, Fluid (supercritical or subcritical phases) | 704.98 kg/m3 | –
443.95 K, 5618.8 kPa, Fluid (supercritical or subcritical phases) | 781.53 kg/m3 | –

Liquid
Details | vapor or sublimation pressure [kPa]
380.03 K | 1207.4
390.04 K | 1480.7
400.04 K | 1798.9
410.03 K | 2166.7
415.03 K | 2371
420 K | 2589.3
424.98 K | 2823.8
429.91 K | 3073.2
429.98 K | 3076.8
434.91 K | 3346
434.97 K | 3349.8
435.91 K | 3403.5
437.91 K | 3521
